{
  "source": "patent US8809344B2",
  "about": "“Compounds, compositions, and methods for control of hepatitis C viral infections” (priority 2008, dated 2014)",
  "key": {"Huh7.5 cells": {"system": "Huh7.5 cells", "assay": "ATP viability assay (CellTiter-Glo) in replicon-harboring Huh7.5 cells", "format": "cell-based, human", "conditions": "24 hours post-treatment; Huh7.5 cells harboring transient genotype 1b replicon", "procedure": "Inhibition of HCV replication by AP0089652, AP0080978 (enantiomer 2 from Example 1) and AP0080977 (enantiomer 1 from Example 1) were assayed by exposing cells harboring an HCV genotype 1b replicons to the compounds and quantitating HCV replicon levels following exposure. The replicon used in these studies was a transient genotype 1b subgenomic replicon generated from the Con1 strain. In this replicon, the HCV internal ribosome entry site (IRES) within the 5′ non-translated region (NTR) drives expression of the first 32 amino acids of the core protein fused to humanized Renilla luciferase (hRluc). The encephalomycarditis IRES lies 3′ to the hRluc open reading frame (ORF) and drives expression of non-structural (NS) proteins NS3 through NS5B. Huh7.5 cells (U.S. patent application Ser. No. 10/534,571) harboring this replicon were seeded into 96-well plates at 20,000 cells per well in medium containing 10% FBS, 1× penicillin/streptomycin, 1× non-essential amino acids, and 100 ng/ml Fungizone. After a four hour attachment period, compound was added to wells using a five point 3-fold serial dilution series with four replicate treatments per dose. […] Compound-mediated HCV inhibition and toxicity were assayed 24 hours post-treatment using Renilla luciferase readout and an ATP viability assay (CellTiter-Glo, Promega, Madison, Wis., USA), respectively. […]"}, "[1]": {"system": "chimeric APV112 HCV (genotype 2a with genotype 1b NS4B amino acids 53 to 218)", "assay": "HCV APV112 viral infectivity assay in Huh7.5 cells, 3′NTR RNA by realtime quantitative PCR", "format": "cell-based, hepatitis C virus", "conditions": "for Log change in 3′NTR copies relative to 1.0% DMSO (GAPDH normalized): APV112, 48 hours", "procedure": "(§1) Inhibition of HCV infectivity by AP0080978 and its analogs (AP0080977, non-active enantiomer; AP0089652, racemate; and AP0080935, an aromatic, non-optically active analog of AP0080978) was assayed by exposing cells with infectious chimeric HCV virions in the presence of the compounds. This was accomplished by use of an HCV cell culture system essentially as described in Pietschmann, T. et al. (2006) 103(19): 7408-13, Proc. Natl. Acad. Sci. USA; and elsewhere. Two viral constructs were utilized to characterize inhibition of viral infectivity (FIG. 4). Construct APV23 (FL-J6/JFH) is a full-length, chimeric, genotype 2a HCV genome containing the HCV core through the NS2 first transmembrane domain coding region from the J6 HCV isolate linked to the second NS2 transmembrane domain NS3 through NS5B coding region of HCV strain JFH-1, as shown in FIG. 4 (i.e. an HCV chimera with the “C3 Junction” described in Pietschmann, T. et al. (2006) Proc. Natl. Acad. Sci. USA 103(19): 7408-13; see page 7409 and FIG. 2A of Pietschmann, T. et al.). Construct APV112 was generated by replacing nucleotides encoding amino acids 53 to 218 of the NS4B gene of the APV23 sequence with a corresponding sequence from a genotype 1b (Con1 strain).\n(§2) Huh7.5 cells were plated at a density of 20,000 cells per well in 96-well plates. The cells were exposed to the chimeric HCV virions at a multiplicity of infection of 0.01. Potential inhibitory compounds were added simultaneously with the chimeric virus. Cells were incubated for 48 hours and then the levels of HCV 3′NTR and GAPDH RNA were quantified by realtime quantitative PCR. Data were analyzed by the comparative Ct method with delta-delta Ct determined relative to 1.0% DMSO. Results in FIGS. 5 and 6 are depicted as log change in 3′NTR copies relative to 1.0% DMSO."}, "[2]": {"system": "chimeric APV23 (FL-J6/JFH) genotype 2a HCV", "assay": "HCV APV23 viral infectivity assay in Huh7.5 cells, 3′NTR RNA by realtime quantitative PCR", "format": "cell-based, hepatitis C virus", "conditions": "FIG. 6; genotype 2a NS4B coding region", "procedure": "as §1, §2"}},
  "data": [
    {"molecule": "O=C(NCc1cccs1)c1nn2c(c1Cl)NC(c1ccco1)CC2C(F)(F)F", "note": "(stereo not drawn) [Compound 89652, 3-chloro-5-(furan-2-yl)-N-(thiophen-2-ylmethyl)-7-(trifluoromethyl)-4,5,6,7-tetrahydropyrazolo[L5-a]pyrimidine-2-carboxamide]", "values": [
      {"measurement": "CC50", "setting": "Huh7.5 cells", "result": "> 100", "unit": "µM"},
      {"measurement": "potency in viral infectivity assays relative to HCV replicon assays", "setting": "[1]", "result": "significantly more potent"},
      {"measurement": "Log change in 3′NTR copies relative to 1.0% DMSO (GAPDH normalized)", "setting": "[1]; 0.02 μM", "result": "−0.15"},
      {"measurement": "Log change in 3′NTR copies relative to 1.0% DMSO (GAPDH normalized)", "setting": "[1]; 0.07 μM", "result": "−0.52"},
      {"measurement": "Log change in 3′NTR copies relative to 1.0% DMSO (GAPDH normalized)", "setting": "[1]; 0.22 μM", "result": "−0.85"},
      {"measurement": "Log change in 3′NTR copies relative to 1.0% DMSO (GAPDH normalized)", "setting": "[1]; 0.67 μM", "result": "−1.31"},
      {"measurement": "Log change in 3′NTR copies relative to 1.0% DMSO (GAPDH normalized)", "setting": "[1]; 2 μM", "result": "−1.47"},
      {"measurement": "chimeric APV112 viral infectivity", "setting": "[1]; FIG. 5, sensitive genotype 1b NS4B region", "result": "reduced"},
      {"measurement": "chimeric APV23 viral infectivity", "setting": "[2]", "result": "unaffected"}
    ]}
  ]
}
